{"source": "the NIST ThermoML archive (doi:10.1016/j.tca.2014.09.022)", "key": {"[1]": {"details": "DTA"}, "[2]": {"assay": "Molar enthalpy of transition or fusion", "details": "DSC"}}, "note": "Numbers after ± are expanded uncertainties."}
{"smiles": "Oc1ccc(O)cc1", "note": "[1,4-benzenediol]", "values": [{"measurement": "Triple point temperature", "setting": "[1]; Crystal", "value": "445.65 ± 2.5", "unit": "K"}, {"measurement": "Molar enthalpy of transition or fusion", "setting": "[2]; Crystal", "value": "5.68 ± 0.311", "unit": "kcal/mol"}]}
{"smiles": "O=C(O)CCCC(=O)O", "note": "[1,5-pentanedioic acid]", "values": [{"measurement": "Triple point temperature", "setting": "[1]; Crystal", "value": "369.65 ± 2.5", "unit": "K"}, {"measurement": "Molar enthalpy of transition or fusion", "setting": "[2]; Crystal", "value": "5.02 ± 0.287", "unit": "kcal/mol"}]}
{"smiles": "O=C(O)CCCCCCCCC(=O)O", "note": "[1,10-decanedioic acid]", "values": [{"measurement": "Triple point temperature", "setting": "[1]; Crystal", "value": "405.65 ± 2.5", "unit": "K"}, {"measurement": "Molar enthalpy of transition or fusion", "setting": "[2]; Crystal", "value": "10.7 ± 0.574", "unit": "kcal/mol"}]}
{"smiles": "OCCCCCCCCCCO", "note": "[1,10-decanediol]", "values": [{"measurement": "Triple point temperature", "setting": "[1]; Crystal", "value": "344.65 ± 2.5", "unit": "K"}, {"measurement": "Molar enthalpy of transition or fusion", "setting": "[2]; Crystal", "value": "10.7 ± 0.574", "unit": "kcal/mol"}]}
{"smiles": "OC[C@@H](O)[C@@H](O)CO", "note": "[meso-1,2,3,4-butanetetrol]", "values": [{"measurement": "Triple point temperature", "setting": "[1]; Crystal", "value": "390.15 ± 3", "unit": "K"}, {"measurement": "Molar enthalpy of transition or fusion", "setting": "[2]; Crystal", "value": "9.54 ± 0.502", "unit": "kcal/mol"}]}
{"smiles": "CNC(N)=O", "note": "[methylurea]", "values": [{"measurement": "Triple point temperature", "setting": "[1]; Crystal", "value": "368.15 ± 5", "unit": "K"}, {"measurement": "Molar enthalpy of transition or fusion", "setting": "[2]; Crystal", "value": "3.05 ± 0.177", "unit": "kcal/mol"}]}
{"smiles": "CCCCCCCCCCCCCCCCCCCCCCCCCCCC", "note": "[octacosane]", "values": [{"measurement": "Triple point temperature", "setting": "[1]; Crystal 1", "value": "335.65 ± 2.5", "unit": "K"}, {"measurement": "Triple point temperature", "setting": "[1]; Crystal 2", "value": "330.65 ± 2.5", "unit": "K"}, {"measurement": "Molar enthalpy of transition or fusion", "setting": "[2]; Crystal 1", "value": "15.3 ± 0.86", "unit": "kcal/mol"}, {"measurement": "Molar enthalpy of transition or fusion", "setting": "[2]; Crystal 2", "value": "8.49 ± 0.478", "unit": "kcal/mol"}]}
